Where two headings read alike, the source gives them in different places. No end group written: not given here.
Key:
[1] = system: Trypanosoma cruzi (M/HOM/AR/74/CA-I CL72); type: cell-based; conditions: for IC50: 50% reduction in untreated-culture growth after 96 hours, triplicate wells, three independent trials
Rhodococcus rhodnii = assay: Minimal Inhibitory Concentration; type: cell-based; conditions: single AMP treatment, result in words
E. coli DH5α = assay: Minimal Inhibitory Concentration; type: cell-based, Escherichia coli; conditions: single AMP treatment, result in words

GIGKFLHSAKKFGKAFVGEIMNS [Magainin, Magainin II]
IC50 ([1]; read-out: IC50B, peptide B alone): 10 µM

GNNRPVYIPQPRPPHPRL-NH2 [Apidaecin, Apidaecin 14]
IC50 ([1]; read-out: IC50A, peptide A alone): 0.7 µM

KWKLFKKIEKVGQNIRDGIIKAGPAVAVVGQATQIAK-NH2 [Cecropin A]
Growth inhibition of T. cruzi ([1]; single peptide, 96 hour treatment, 0 to 10 μM concentration range): ≤ 50%

QGYQGGYTRPFPRPPYGGGYHPVPVCTSCHRLSPLQARACCRQLGRCCDAKQTYG [Penaeidin, penaeidin]
Effect on R. rhodnii in MIC assay (Rhodococcus rhodnii): did not have an effect
Effect on E. coli in MIC assay (E. coli DH5α): did not have an effect
